Consider 21 molecules from patent publication US7468369B2, “Sulfonyl pyrrolidines, method for producing the same and their use as drugs” (Sanofi-Aventis, priority 2005, dated 2008).

In this assay the test system is human ABCA1 promoter. Put plainly: ABCA1 promoter test (luciferase reporter in stably transfected THP1 cell line). As to conditions: Homo sapiens, THP-1; ABCA1 reporter cell line (THP1, PMA-differentiated), 24 h incubation, luciferase chemiluminescence; read-out: E50 ABCA1. The class given is cell-based. Here is the method:
The potency of substances which activate expression of the human ABCA1 gene via its promoter is analyzed by using a stably transfected THP1 cell line (human monocyte cell line) which is referred to herein as ABCA1 reporter cell line. It contains a fragment, 3.2 kb in size and stably integrated into the genome, of the human ABCA1 promoter in front of a luciferase reporter element. Expression of the luciferase reporter gene is only low without addition of an ABCA1 expression activator. The substances stimulating ABCA1 expression bring about, via activation of the ABCA1 promoter, an enhanced expression of the luciferase reporter gene. The luciferase which is formed can be detected via an appropriate substrate by means of chemiluminescence.
Construction of the Cell Line
The ABCA1 reporter line was prepared as follows: firstly the neomycin resistance gene (Acc. No.: AJ000156) was introduced into the luciferase reporter plasmid pLG3basic (#1751, Promega) 3′ below the luciferase reporter element. Subsequently, an ABCA1 promoter fragment, 3.2 kb in size and amplified from human genomic DNA (#6550-1, Clontech) by the polymerase chain reaction, was cloned in 5′ above the luciferase reporter element. The reporter plasmid produced in this way was called pGL3BN-ABCA1P. Luciferase expression in this plasmid is controlled by the ABCA1 promoter. Cloning and sequencing of the construct took place in analogy to the description in Sambrook J et al. (Molecular cloning, Cold Spring Harbor Laboratory Press, 1989). For stable transfection into THP1 cells, firstly pGL3BN-ABCA1P was linearized with a restriction endonuclease and then introduced into the THP1 cells as stated in Ausubel, F. M. et al. (Current protocols in molecular biology, Vol. 1-3, John Wiley & Sons, Inc., 1995).
The activity of ABCA1 expression activators is determined in a 3-day test which is described below:
The ABCA1 reporter cell line comprises suspension cells. These are cultured until the concentration is 0.5×10^6 cells/ml in RPMI medium (#52400-025, Invitrogen) which is mixed with the following additions: 10% FCS (fetal calf serum; #16000-044, invitrogen), 0.5 mg/ml Geneticin (#10131-019, invitrogen) and 1% penicillin-streptomycin solution (#15140-122, invitrogen). The culturing takes place in standard cell culture flasks (#353112, Becton Dickinson) in a cell culture incubator at 37° C. in the presence of 5% CO2.
For the ABCA1 promoter test, the suspension cells are centrifuged at 1200 rpm in 50 ml tubes. The supernatant is aspirated off, and the pellet is resuspended in 15 ml of RPMI medium and counted in a cell counter. After dilution to 175 000 cells/ml, 0.1 μg/ml PMA (phorbol 12-myristate 13-acetate, #8139-5MG, Sigma) is added in order to induce differentiation of the monocytic THP1 suspension cells into adherent macrophages. 35 000 cells in each well are seeded in a 96-well microtiter plate with clear plastic base (#3610, Corning Costar). The plates are incubated in a cell culture incubator at 37° C. and 5% CO2 for 24 h.
The ABCA1 expression activators to be tested are dissolved in a concentration of 10 mM in DMSO. This stock solution is diluted in the RPMI medium (mixed with 0.1 μg/ml PMA) described above. Test substances are tested in 11 different concentrations in the range from […] to 330 pM. The medium of the ABCA1 reporter cell line seeded on day 1 is completely removed by aspiration and the diluted test substances are immediately added to the cells. The dilution and addition of the substances takes place with a pipetting robot (Beckman FX). The final volume of the test substances diluted in medium is 100 μl per well of a 96-well microtiter plate. The DMSO concentration in the test is less than 0.1% v/v in order to avoid cytotoxic effects of the solvent.
The test plates are incubated in an incubator at 37° C. and 5% CO2 for 24 h.
The ABCA1 reporter cells treated with the test substances are removed from the incubator and the medium is aspirated off. […]
Background: Reporter assays use an easily measured gene product as a stand-in for the process of interest.
Consider `CC(=O)c1ccc(N2CCN(C(=O)[C@@H]3CN(S(=O)(=O)c4cccs4)C[C@H]3c3ccccc3)CC2)cc1` (racemic) [Example 7, 1-(4-{4-[3,4-trans-4-Phenyl-1-(thiophene-2-sulfonyl)pyrrolidine-3-carbonyl]-piperazin-1-yl}phenyl)ethanone], for which the EC50 came out at 13.2 µM.

Consider `COc1ccccc1N1CCN(C(=O)[C@@H]2CN(S(=O)(=O)c3cccs3)C[C@H]2c2ccccc2)CC1` (racemic) [Example 24, [4-(2-Methoxyphenyl)piperazin-1-yl]-[3,4-trans-4-phenyl-1-(thiophene-2-sulfonyl)pyrrolidin-3-yl]methanone], for which the EC50 came out at 15 µM. The result for `COc1ccccc1N1CCN(C(=O)[C@@H]2CN(S(=O)(=O)c3cc(Br)c(Br)s3)C[C@H]2c2ccccc2)CC1` (racemic) [Example 25, [1-(4,5-Dibromothiophene-2-sulfonyl)-3,4-trans-4-phenylpyrrolidin-3-yl]-[4-(2-methoxyphenyl)piperazin-1-yl]methanone] reads 3.81 µM; that for `COc1ccccc1N1CCN(C(=O)[C@@H]2CN(S(=O)(=O)c3ccc(Cl)s3)C[C@H]2c2ccccc2)CC1` (racemic) [Example 26, [1-(5-Chlorothiophene-2-sulfonyl)-3,4-trans-4-phenylpyrrolidin-3-yl]-[4-(2-methoxyphenyl)piperazin-1-yl]methanone], 2.94 µM. With `COc1ccccc1N1CCN(C(=O)[C@@H]2CN(S(=O)(=O)c3cc(Cl)c(Cl)s3)C[C@H]2c2ccccc2)CC1` (racemic) [Example 27, [1-(4,5-Dichlorothiophene-2-sulfonyl)-3,4-trans-4-phenylpyrrolidin-3-yl]-[4-(2-methoxyphenyl)piperazin-1-yl]methanone] the figure was 6.99 µM. The result for `COc1ccccc1N1CCN(C(=O)[C@@H]2CN(S(=O)(=O)c3sc4ccc(Cl)cc4c3C)C[C@H]2c2ccccc2)CC1` (racemic) [Example 29, [1-(5-Chloro-3-methylbenzo[b]thiophene-2-sulfonyl)-3,4-trans-4-phenyl-pyrrolidin-3-yl]-[4-(2-methoxyphenyl)piperazin-1-yl]methanone] reads 5.61 µM; that for `O=C([C@@H]1CN(S(=O)(=O)c2cccs2)C[C@H]1c1ccccc1)N1CCN(c2cccc(C(F)(F)F)c2)CC1` (racemic) [Example 30, [3,4-trans-4-Phenyl-1-(thiophene-2-sulfonyl)pyrrolidin-3-yl]-[4-(3-trifluoromethylphenyl)piperazin-1-yl]methanone], 3.22 µM; that for `O=C([C@@H]1CN(S(=O)(=O)c2cc(Br)c(Br)s2)C[C@H]1c1ccccc1)N1CCN(c2cccc(C(F)(F)F)c2)CC1` (racemic) [Example 31, [1-(4,5-Dibromothiophene-2-sulfonyl)-3,4-trans-4-phenylpyrrolidin-3-yl]-[4-(3-trifluoromethylphenyl)piperazin-1-yl]methanone], 1.77 µM. As to `O=C([C@@H]1CN(S(=O)(=O)c2ccc(Cl)s2)C[C@H]1c1ccccc1)N1CCN(c2cccc(C(F)(F)F)c2)CC1` (racemic) [Example 32, [1-(5-Chlorothiophene-2-sulfonyl)-3,4-trans-4-phenylpyrrolidin-3-yl]-[4-(3-trifluoromethylphenyl)piperazin-1-yl]methanone], the EC50 worked out at 16.2 µM. For `O=C([C@@H]1CN(S(=O)(=O)c2cc(Cl)c(Cl)s2)C[C@H]1c1ccccc1)N1CCN(c2cccc(C(F)(F)F)c2)CC1` (racemic) [Example 33, [1-(4,5-Dichlorothiophene-2-sulfonyl)-3,4-trans-4-phenylpyrrolidin-3-yl]-[4-(3-trifluoromethylphenyl)piperazin-1-yl]methanone], the EC50 stood at 6.59 µM. With `Cc1ccc(N2CCN(C(=O)[C@@H]3CN(S(=O)(=O)c4cccs4)C[C@H]3c3ccccc3)CC2)c(C)c1` (racemic) [Example 36, [4-(2,4-Dimethylphenyl)piperazin-1-yl]-[3,4-trans-4-phenyl-1-(thiophene-2-sulfonyl)pyrrolidin-3-yl]methanone] the figure was 3.6 µM; with `Cc1ccc(N2CCN(C(=O)[C@@H]3CN(S(=O)(=O)c4cc(Br)c(Br)s4)C[C@H]3c3ccccc3)CC2)c(C)c1` (racemic) [Example 37, [1-(4,5-Dibromothiophene-2-sulfonyl)-3,4-trans-4-phenylpyrrolidin-3-yl]-[4-(2,4-dimethylphenyl)piperazin-1-yl]methanone], 2.57 µM.

Regarding `Cc1ccc(N2CCN(C(=O)[C@@H]3CN(S(=O)(=O)c4ccc(Cl)s4)C[C@H]3c3ccccc3)CC2)c(C)c1` (racemic) [Example 38, [1-(5-Chlorothiophene-2-sulfonyl)-3,4-trans-4-phenylpyrrolidin-3-yl]-[4-(2,4-dimethylphenyl)piperazin-1-yl]methanone], the EC50 turned out to be 2.66 µM. With `Cc1ccc(N2CCN(C(=O)[C@@H]3CN(S(=O)(=O)c4cc(Cl)c(Cl)s4)C[C@H]3c3ccccc3)CC2)c(C)c1` (racemic) [Example 39] the figure was 3.73 µM; with `Cc1ccc(N2CCN(C(=O)[C@@H]3CN(S(=O)(=O)c4cccs4)C[C@H]3c3ccccc3)CC2)cc1C` (racemic) [Example 42, [4-(3,4-Dimethylphenyl)piperazin-1-yl]-[3,4-trans-4-phenyl-1-(thiophene-2-sulfonyl)pyrrolidin-3-yl)methanone], 18.8 µM; with `Cc1ccc(N2CCN(C(=O)[C@@H]3CN(S(=O)(=O)c4cc(Br)c(Br)s4)C[C@H]3c3ccccc3)CC2)cc1C` (racemic) [Example 43, [1-(4,5-Dibromothiophene-2-sulfonyl)-3,4-trans-4-phenylpyrrolidin-3-yl]-[4-(3,4-dimethylphenyl)piperazin-1-yl]methanone], 4.08 µM. Turning to `Cc1ccc(N2CCN(C(=O)[C@@H]3CN(S(=O)(=O)c4ccc(Cl)s4)C[C@H]3c3ccccc3)CC2)cc1C` (racemic) [Example 44, [1-(5-Chlorothiophene-2-sulfonyl)-3,4-trans-4-phenylpyrrolidin-3-yl]-[4-(3,4-dimethylphenyl)piperazin-1-yl]methanone], the EC50 amounted to 15.1 µM. Turning to `Cc1ccc(N2CCN(C(=O)[C@@H]3CN(S(=O)(=O)c4cc(Cl)c(Cl)s4)C[C@H]3c3ccccc3)CC2)cc1C` (racemic) [Example 45], the EC50 was determined as 4.62 µM. With `Cc1ccc(C)c(N2CCN(C(=O)[C@@H]3CN(S(=O)(=O)c4ccc(Cl)s4)C[C@H]3c3ccccc3)CC2)c1` (racemic) [Example 48, [1-(5-Chlorothiophen-2-sulfonyl)-3,4-trans-4-phenylpyrrolidin-3-yl]-[4-(2,5-dimethylphenyl)piperazin-1-yl]methanone] the figure was 0.706 µM; with `Cc1ccc(C)c(N2CCN(C(=O)[C@@H]3CN(S(=O)(=O)c4cc(Cl)c(Cl)s4)C[C@H]3c3ccccc3)CC2)c1` (racemic) [Example 49, [1-(4,5-Dichlorothiophene-2-sulfonyl)-3,4-trans-4-phenylpyrrolidin-3-yl]-[4-(2,5-dimethylphenyl)piperazin-1-yl]methanone], 1.95 µM. Take `COC(=O)c1cc(C)c(S(=O)(=O)N2C[C@@H](C(=O)N3CCN(c4cc(C)ccc4C)CC3)[C@H](c3ccccc3)C2)s1` (racemic) [Example 50, Methyl 5-{3,4-trans-3-[4-(2,5-dimethylphenyl)piperazine-1-carbonyl]-4-phenylpyrrolidine-1-sulfonyl}-4-methylthiophene-2-carboxylate]: the EC50 amounted to 7.34 µM.
